The results in this text go back to PubChem BioAssay AID179 (DTP/NCI, 2004).

Molecules are shown by their SMILES. Activity calls are given as the source filed them.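 The calls were made as follows: active = compounds giving half or more protection of infected cells from virus-caused growth loss, again on retest; inactive = the rest.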

Broadly, the EC50 is the concentration giving half of the maximal effect. In general, IC50 refers to the concentration that gives 50% inhibition.

In this assay the test system is CEM cells HIV-1 protection, formazan growth assay. As to the kind of experiment: NCI AIDS Antiviral Assay. The settings on record: for IC50: measured here: growth of uninfected CEM cells. An outline of the steps: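 Soluble formazan readout of cell growth; CEM cells ± HIV-1; 5 drug concs. ≥50% protection → retest; ≥50% again = moderately active; reproducible 100% = confirmed active.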

With `COc1ccc(/C=C/C(=O)c2sc(NC(=S)NC(=O)c3ccccc3F)nc2C)cc1OC`, the EC50 was greater than 74.1 µM and the concentration for half-maximal inhibition (IC50) is greater than 74.1 µM.
Turning to `C[Si]12OCCCN(CCO1)CCO2`, the outcome was inactive.
With `COc1c(OC)c(OC)c2c(=O)cc(-c3ccc(OC(C)=O)cc3)oc2c1OC`, the EC50 is greater than 200 µM and the IC50 was 19.5 µM.
On to `C/C=C/C(=O)N1C(=O)OC[C@@H]1c1ccccc1`, for which the EC50 was greater than 200 µM and the IC50 was determined as 6.92 µM.
With `O=C1c2ccccc2[Se](=O)N1c1ccccc1` (stereo unspecified), the EC50 is 1.17 µM and the IC50 is 14.1 µM.
For `O=[N+]([O-])c1ccc(-c2nn3c(C45CC6CC(CC(C6)C4)C5)nnc3s2)c(Cl)c1`, the EC50 was greater than 200 µM and the IC50 was greater than 200 µM.
`CCOC(=O)COc1cccc2occc(=O)c12`: the result was inactive.
Take `Cc1cc(S(=O)(=O)NC2=NCC(C)NN2)c(S)cc1Cl` (stereo unspecified): the EC50 was greater than 200 µM and the half-inhibitory concentration (IC50) came out at 39.8 µM.
As for `O=C(O)c1cc(OS(=O)(=O)O)c(OS(=O)(=O)O)c(OS(=O)(=O)O)c1`, the EC50 was greater than 200 µM and the IC50 came out at 11.2 µM.
Turning to `O=C1c2ccccc2C(=O)c2sccc21`, the EC50 was greater than 200 µM and the IC50 stood at 7.24 µM.
As to `CCCCCCCCCCNC(C)=O`, the EC50 was greater than 200 µM and the IC50 stood at 85.1 µM.
In the case of `O=C(O)c1cccc(OCCOc2cccc(C(=O)O)c2[N+](=O)[O-])c1[N+](=O)[O-]`, the EC50 was greater than 200 µM and the IC50 was greater than 200 µM.
For the compound `O=C(CSc1nnc(-c2ccc(N=Cc3ccc(Cl)cc3)cc2)o1)Nc1ccc(Cl)cc1`, the EC50 was greater than 269 µM and the IC50 was determined as 141 µM.
For `O=C(O)CN(CC(=O)O)Cc1cc(C#Cc2ccc(C#Cc3ccccc3)cc2)cc(CN(CC(=O)O)CC(=O)O)n1`, in that order: greater than 77.6 µM and 19.5 µM.
For the compound `O=C(O)/C(Cl)=C(/Cl)C(=O)Nc1cc(Cl)ccc1Cl`, the result was inactive.
Take `CC#CCCC1(C)CCCCN(C(=O)OC(C)C)C1OCC` (stereo unspecified): the EC50 was greater than 43.7 µM and the IC50 was greater than 43.7 µM.
Take `O=C(O)CCCc1ccc([As](=O)(O)O)cc1[N+](=O)[O-]`: the EC50 is greater than 200 µM and the half-inhibitory concentration (IC50) was greater than 200 µM.
For `COC1(OC)/C(=C(\N)C=O)NC(C)(C)N1O`, the result was inactive.
Turning to `CN(C)CC/C=C1\c2ccccc2CSc2ccccc21`, the EC50 is greater than 200 µM and the IC50 was 32.4 µM.
As for `Nc1ccn(C2CC(CO)C(CO)C2)c(=O)n1` (stereo unspecified), the EC50 is greater than 209 µM and the IC50 was greater than 209 µM.
As to `CC(=O)CCC(=O)CC(O)(C(F)(F)F)C(F)(F)F`, the EC50 is greater than 200 µM and the IC50 was 33.1 µM.
As for `Cc1ccc(-c2csc(=Nc3ccccc3)n2NC(=O)c2ccncc2)cc1`, the EC50 was greater than 200 µM and the IC50 came out at 22.9 µM.
Regarding `C=Cc1nc(C#N)c(N)o1`, the result was inactive.
Take `Cc1c(N=Nc2ccc(Br)cc2)c(=O)n(-c2ccccc2)c(=O)n1-c1nc2ccccc2[nH]1`: the EC50 is greater than 89.1 µM and the concentration for half-maximal inhibition (IC50) came out at 85.1 µM.
Turning to `COc1cc(N(C)C)c(OC)cc1/C=C1\Cc2ccccc2C1=O`, the EC50 is greater than 57.5 µM and the IC50 was 46.8 µM.
On to `COc1ccc(-c2c(C#N)c(-c3ccc(C)cc3)n(NS(=O)(=O)c3ccc(C)cc3)c(=O)c2C#N)cc1`, for which the EC50 is greater than 200 µM and the concentration for half-maximal inhibition (IC50) was 17.4 µM.
Turning to `CC(=O)C1C(=O)NC(=O)C1=O` (stereo unspecified), the EC50 is greater than 1620 µM and the IC50 is greater than 1620 µM.
As to `COc1ccc(OC)c(CCCC(=O)O)c1`, the EC50 is 0.0631 µM and the half-maximal inhibitory concentration (IC50) was greater than 200 µM.
For `NC(Cc1ccccc1CP(=O)(O)O)C(=O)O` (stereo unspecified), in that order: greater than 200 µM and greater than 200 µM.
Regarding `CN(C)CCC=C1c2ccccc2C(C)(C)c2ccccc21`, the EC50 is greater than 141 µM and the IC50 came out at 25.1 µM.
Turning to `CCOC(OC1=C(C#N)CCC1)C(C)[Se]c1ccccc1` (stereo unspecified), the EC50 is greater than 49 µM and the IC50 amounted to 26.3 µM.
In the same order, the values of `CCCCCCCCCCCCCCCCNc1nc(=O)n(C2CC(N=[N+]=[N-])C(CO)O2)cc1C` (stereo unspecified) are greater than 200 µM and 9.33 µM.
For `NC(CC(=O)OCc1ccccc1)C(=O)OCc1ccccc1` (stereo unspecified), in that order: greater than 200 µM and greater than 200 µM.
Regarding `CN1CCN(C)C12C=c1ccccc1=CC21CC1`, the outcome was inactive.
`NC(=O)CC(N)C(=O)NC(Cc1ccccc1)C(=O)NC(Cc1ccccc1)NC(=O)C(Cc1c[nH]c2ccccc12)C(=O)O` (stereo unspecified): the EC50 is greater than 200 µM and the IC50 is greater than 200 µM.
Turning to `O=S1(=O)CC#CC[C@@H](CO)[C@@H](CO)CC#CC1`, the result was inactive.
In the case of `NC(N)=N/N=C/C(Cl)(Cl)Cl`, the EC50 was greater than 200 µM and the IC50 is greater than 200 µM.
For `CCCCCCCC1c2cc3[nH]c(cc4nc(cc5[nH]c(cc(n2)[C@@]1(C)CC(=O)N(C)C)c(C)c5CCC(=O)O)C(CCC(=O)O)=C4C)cc3C` (stereo partly specified), the EC50 is greater than 200 µM and the IC50 worked out at 7.59 µM.
Regarding `COc1ncnc2c1ncn2C1OC(CO)(C(F)(F)F)C(O)C1O` (stereo unspecified), the EC50 is greater than 200 µM and the IC50 is greater than 200 µM.
Regarding `O=C1/C(=C/c2cccc(F)c2)CCCc2ccccc21`, the EC50 is greater than 200 µM and the IC50 is 19.5 µM.
For `O=C1CCN2CCC(=O)c3cccc1c32`, the outcome was inactive.
For `CCOc1ccc(O)cc1[P+](c1ccccc1)(c1ccccc1)c1ccccc1`, the outcome was inactive.
Take `Cc1c(-c2ccccc2)sc(N)c1C#N`: the result was inactive.
As to `COC(=O)/C(Cl)=C1/CC1COCc1ccccc1` (stereo unspecified), the EC50 was greater than 186 µM and the IC50 was 107 µM.
For the compound `O=C1N(c2ccccc2)C(=O)C2(SC=NN2Cc2ccccc2)N1c1ccccc1` (stereo unspecified), the outcome was inactive.
As for `O=C(N=Nc1ccc(Cl)cc1Cl)NNc1ccc(Cl)cc1Cl`, the EC50 was greater than 200 µM and the IC50 was determined as 57.5 µM.
Consider `O=C(Nc1cccc2nsnc12)c1ccc(C(=O)Nc2cccc3nsnc23)cc1`, for which the EC50 is greater than 22.9 µM and the IC50 was greater than 22.9 µM.
Regarding `COc1cc2c(C)cc(=O)oc2cc1O`, the EC50 was greater than 457 µM and the IC50 came out at 148 µM.
For `O=c1[nH]cnc2[nH]ncc12`, in that order: greater than 200 µM and greater than 200 µM.
Consider `O=c1[nH]cnc2c1ncn2[C@@H]1C[C@@H]1CO`, for which the EC50 was greater than 200 µM and the IC50 is greater than 200 µM.
Consider `COc1cc(C2c3cc4c(cc3C(O)[C@H]3COC(=O)C23)OCO4)cc(OC)c1O` (stereo partly specified), for which the EC50 is greater than 200 µM and the IC50 stood at 0.0631 µM.
As to `CCCCn1c(=O)[nH]c2c(N)ncnc21`, the EC50 was greater than 200 µM and the half-maximal inhibitory concentration (IC50) is greater than 200 µM.
For the compound `CCNC(=S)N/N=C/c1cc([N+](=O)[O-])ccc1O`, the EC50 was greater than 200 µM and the 50% inhibitory concentration (IC50) stood at 5.01 µM.
On to `COC(=O)n1c(C)c(C=O)c2ccc(OC)cc21`, for which the EC50 was greater than 200 µM and the IC50 came out at 34.7 µM.
On to `Cc1ccc(C(=O)N2c3ccccc3N(C)n3cccc3C2CC(=O)O)cc1` (stereo unspecified), for which the EC50 is greater than 661 µM and the IC50 is 148 µM.
In the case of `CCOC(=O)/C(=C\c1cccc(F)c1)[Se]c1ccccc1`, the EC50 is greater than 38.9 µM and the concentration for half-maximal inhibition (IC50) was greater than 38.9 µM.
